# Experimental data as given in ChEMBL document CHEMBL3885861, “Open TG-GATES”.
# Organism: Rattus norvegicus
# Assay: Open TG-GATES - Regimen: Daily Repeat
# Type: toxicity, organism-based, Sprague-Dawley
# Set-up: regimen Daily Repeat, gender Male, age 6 weeks
# Conditions: in vivo, po, 0 mg/kg, route gavage, dose level Control; for APTT / Bas / Eos / Fbg / Hb / Ht / Lym / MCH / MCHC / MCV / Mono / Neu / PT / Plat / RBC / Ret / WBC: tissue Blood; for KIDNEY_L / KIDNEY_R / KIDNEY_TOTAL: tissue Kidney; for LIVER: tissue Liver; for A/G / ALP / ALT / AST / BUN / CRE / Ca / Cl / DBIL / GLC / IP / K / LDH / Na / PL / RALB / TBIL / TC / TG / TP / gamma-GTP: tissue Plasma
smiles,measurement,setting,value
CCN(CC)N=O [N-NITROSODIETHYLAMINE],TERMINAL_BW,"72 h, time 3 day",240.5 g
same,APTT,"72 h, time 3 day",18.3 s
same,Bas,"72 h, time 3 day",0.8%
same,Eos,"72 h, time 3 day",1.2%
same,Fbg,"72 h, time 3 day",218.2 mg/dL
same,Hb,"72 h, time 3 day",13.8 g/dL
same,Ht,"72 h, time 3 day",39.7%
same,Lym,"72 h, time 3 day",77.6%
same,MCH,"72 h, time 3 day",21.7 pg
same,MCHC,"72 h, time 3 day",34.8%
same,MCV,"72 h, time 3 day",62.3 fL
same,Mono,"72 h, time 3 day",2.6%
same,Neu,"72 h, time 3 day",17.6%
same,PT,"72 h, time 3 day",12 s
same,Plat,"72 h, time 3 day",135 x10_4/uL
same,RBC,"72 h, time 3 day",638.8 x10_4/ul
same,Ret,"72 h, time 3 day",5.8%
same,WBC,"72 h, time 3 day",87.8 x10_2/uL
same,KIDNEY_L,"72 h, time 3 day",1 g
same,KIDNEY_R,"72 h, time 3 day",1 g
same,KIDNEY_TOTAL,"72 h, time 3 day",2 g
same,LIVER,"72 h, time 3 day",10.5 g
same,A/G,"72 h, time 3 day",1.6
same,ALP,"72 h, time 3 day",962 IU/L
same,ALT,"72 h, time 3 day",35.8 IU/L
same,AST,"72 h, time 3 day",67 IU/L
same,BUN,"72 h, time 3 day",16.2 mg/dL
same,CRE,"72 h, time 3 day",0.4 mg/dL
same,Ca,"72 h, time 3 day",10.8 mg/dL
same,Cl,"72 h, time 3 day",102.2 meq/L
same,DBIL,"72 h, time 3 day",0.09 mg/dL
same,GLC,"72 h, time 3 day",200.6 mg/dL
same,IP,"72 h, time 3 day",8 mg/dL
same,K,"72 h, time 3 day",4 meq/L
same,LDH,"72 h, time 3 day",211.2 IU/L
same,Na,"72 h, time 3 day",140.2 meq/L
same,PL,"72 h, time 3 day",153 mg/dL
same,RALB,"72 h, time 3 day",3.4 g/dL
same,TBIL,"72 h, time 3 day",0.1 mg/dL
same,TC,"72 h, time 3 day",82.6 mg/dL
same,TG,"72 h, time 3 day",79.2 mg/dL
same,TP,"72 h, time 3 day",5.6 g/dL
same,gamma-GTP,"72 h, time 3 day",1 IU/L
same,TERMINAL_BW,"[…], time 7 day",275.8 g
same,TERMINAL_BW,"[…], time 14 day",325.9 g
same,TERMINAL_BW,"[…], time 28 day",396.4 g
same,APTT,"[…], time 7 day",20.6 s
same,Bas,"[…], time 7 day",0%
same,Eos,"[…], time 7 day",1%
same,Fbg,"[…], time 7 day",217.4 mg/dL
same,Hb,"[…], time 7 day",13.5 g/dL
same,Ht,"[…], time 7 day",38.7%
same,Lym,"[…], time 7 day",79.6%
same,MCH,"[…], time 7 day",21.3 pg
same,MCHC,"[…], time 7 day",34.9%
same,MCV,"[…], time 7 day",61 fL
same,Mono,"[…], time 7 day",2.4%
same,Neu,"[…], time 7 day",16%
same,PT,"[…], time 7 day",11.8 s
same,Plat,"[…], time 7 day",142.9 x10_4/uL
same,RBC,"[…], time 7 day",634 x10_4/ul
same,Ret,"[…], time 7 day",5.8%
same,WBC,"[…], time 7 day",109.2 x10_2/uL
same,APTT,"[…], time 14 day",21.7 s
same,Bas,"[…], time 14 day",1%
same,Eos,"[…], time 14 day",0.8%
same,Fbg,"[…], time 14 day",216.6 mg/dL
same,Hb,"[…], time 14 day",14.7 g/dL
same,Ht,"[…], time 14 day",41.9%
same,Lym,"[…], time 14 day",82%
same,MCH,"[…], time 14 day",21 pg
same,MCHC,"[…], time 14 day",35%
same,MCV,"[…], time 14 day",60.1 fL
same,Mono,"[…], time 14 day",1.8%
same,Neu,"[…], time 14 day",13.8%
same,PT,"[…], time 14 day",12 s
same,Plat,"[…], time 14 day",124.2 x10_4/uL
same,RBC,"[…], time 14 day",697 x10_4/ul
same,Ret,"[…], time 14 day",4.3%
same,WBC,"[…], time 14 day",94.2 x10_2/uL
same,APTT,"[…], time 28 day",21.9 s
same,Bas,"[…], time 28 day",0.8%
same,Eos,"[…], time 28 day",1.4%
same,Fbg,"[…], time 28 day",225 mg/dL
same,Hb,"[…], time 28 day",15.5 g/dL
same,Ht,"[…], time 28 day",42.3%
same,Lym,"[…], time 28 day",80.8%
same,MCH,"[…], time 28 day",20.4 pg
same,MCHC,"[…], time 28 day",36.6%
same,MCV,"[…], time 28 day",55.8 fL
same,Mono,"[…], time 28 day",2%
same,Neu,"[…], time 28 day",14.8%
same,PT,"[…], time 28 day",11.6 s
same,Plat,"[…], time 28 day",108.6 x10_4/uL
same,RBC,"[…], time 28 day",758.6 x10_4/ul
same,Ret,"[…], time 28 day",2.6%
same,WBC,"[…], time 28 day",81 x10_2/uL
same,KIDNEY_L,"[…], time 7 day",1.2 g
same,KIDNEY_R,"[…], time 7 day",1.1 g
same,KIDNEY_TOTAL,"[…], time 7 day",2.3 g
same,KIDNEY_L,"[…], time 14 day",1.3 g
same,KIDNEY_R,"[…], time 14 day",1.3 g
same,KIDNEY_TOTAL,"[…], time 14 day",2.6 g
same,KIDNEY_L,"[…], time 28 day",1.3 g
same,KIDNEY_R,"[…], time 28 day",1.3 g
same,KIDNEY_TOTAL,"[…], time 28 day",2.7 g
same,LIVER,"[…], time 7 day",12.4 g
same,LIVER,"[…], time 14 day",13.5 g
same,LIVER,"[…], time 28 day",14.9 g
same,A/G,"[…], time 7 day",1.5
same,ALP,"[…], time 7 day",863.2 IU/L
same,ALT,"[…], time 7 day",32.2 IU/L
same,AST,"[…], time 7 day",66.2 IU/L
same,BUN,"[…], time 7 day",15 mg/dL
same,CRE,"[…], time 7 day",0.4 mg/dL
same,Ca,"[…], time 7 day",10.4 mg/dL
same,Cl,"[…], time 7 day",103.2 meq/L
same,DBIL,"[…], time 7 day",0.1 mg/dL
same,GLC,"[…], time 7 day",194.8 mg/dL
same,IP,"[…], time 7 day",8.5 mg/dL
same,K,"[…], time 7 day",4.1 meq/L
same,LDH,"[…], time 7 day",190 IU/L
same,Na,"[…], time 7 day",141 meq/L
same,PL,"[…], time 7 day",153 mg/dL
same,RALB,"[…], time 7 day",3.3 g/dL
same,TBIL,"[…], time 7 day",0.2 mg/dL
same,TC,"[…], time 7 day",83.2 mg/dL
same,TG,"[…], time 7 day",102.8 mg/dL
same,TP,"[…], time 7 day",5.5 g/dL
same,gamma-GTP,"[…], time 7 day",1 IU/L
same,A/G,"[…], time 14 day",1.5
same,ALP,"[…], time 14 day",688.8 IU/L
same,ALT,"[…], time 14 day",31 IU/L
same,AST,"[…], time 14 day",64.2 IU/L
same,BUN,"[…], time 14 day",15 mg/dL
same,CRE,"[…], time 14 day",0.5 mg/dL
same,Ca,"[…], time 14 day",10.6 mg/dL
same,Cl,"[…], time 14 day",101.6 meq/L
same,DBIL,"[…], time 14 day",0.086 mg/dL
same,GLC,"[…], time 14 day",205 mg/dL
same,IP,"[…], time 14 day",8 mg/dL
same,K,"[…], time 14 day",4 meq/L
same,LDH,"[…], time 14 day",198.4 IU/L
same,Na,"[…], time 14 day",141.6 meq/L
same,PL,"[…], time 14 day",144.4 mg/dL
same,RALB,"[…], time 14 day",3.4 g/dL
same,TBIL,"[…], time 14 day",0.1 mg/dL
same,TC,"[…], time 14 day",72.8 mg/dL
same,TG,"[…], time 14 day",93.6 mg/dL
same,TP,"[…], time 14 day",5.8 g/dL
same,gamma-GTP,"[…], time 14 day",1 IU/L
same,A/G,"[…], time 28 day",1.3
same,ALP,"[…], time 28 day",606.8 IU/L
same,ALT,"[…], time 28 day",33 IU/L
same,AST,"[…], time 28 day",63.6 IU/L
same,BUN,"[…], time 28 day",17.4 mg/dL
same,CRE,"[…], time 28 day",0.5 mg/dL
same,Ca,"[…], time 28 day",10.3 mg/dL
same,Cl,"[…], time 28 day",103 meq/L
same,DBIL,"[…], time 28 day",0.092 mg/dL
same,GLC,"[…], time 28 day",208.4 mg/dL
